Source: ChEMBL document CHEMBL1150275, “Pharmacological and pharmacokinetic characterization of 2-piperazine-alpha-isopropyl benzylamine derivatives as melanocortin-4 receptor antagonists” (Bioorg Med Chem, 2008)

System: not listed separately
Assay: Drug level in mouse brain at 5 mg/kg, iv after 4 hrs
Assay type: ADME, organism-based
Design: dose 5 mg/kg, route intravenous
Details: read-out: Drug uptake

SMILES | concentration at 4 h [ng/g]
CNCC(=O)N[C@H](c1cccc(F)c1N1CCN(C(=O)[C@H](C)Cc2ccc(Cl)cc2Cl)CC1)C(C)C | 71

System: not listed separately
Assay: physchem
Details: buffer, pH 7.4

SMILES | logD
CNCC(=O)N[C@H](c1cccc(F)c1N1CCN(C(=O)[C@H](C)Cc2ccc(Cl)cc2Cl)CC1)C(C)C | 4.3

System: not listed separately
Assay: AUC in mouse at 10 mg/kg, po
Assay type: ADME, organism-based
Design: dose 10 mg/kg, route oral
Details: plasma

SMILES | AUC [ng·h/mL]
CNCC(=O)N[C@H](c1cccc(F)c1N1CCN(C(=O)[C@H](C)Cc2ccc(Cl)cc2Cl)CC1)C(C)C | 1010

System: not listed separately
Assay: Tmax in mouse at 5 mg/kg, iv and 10 mg/kg, po
Assay type: ADME, organism-based
Details: in vivo

SMILES | Tmax [h]
CNCC(=O)N[C@H](c1cccc(F)c1N1CCN(C(=O)[C@H](C)Cc2ccc(Cl)cc2Cl)CC1)C(C)C | 2

System: Caco-2
Assay: Apparent permeability across human Caco-2 cells
Assay type: ADME, cell-based
Details: not given

SMILES | Papp [×10⁻⁶ cm/s]
CNCC(=O)N[C@H](c1cccc(F)c1N1CCN(C(=O)[C@H](C)Cc2ccc(Cl)cc2Cl)CC1)C(C)C | 2

System: not listed separately
Assay: Ratio of drug level in brain to plasma in mouse at 5 mg/kg, iv after 4 hrs
Assay type: ADME, organism-based
Design: dose 5 mg/kg, route intravenous
Details: not given

SMILES | Kp at 4 h
CNCC(=O)N[C@H](c1cccc(F)c1N1CCN(C(=O)[C@H](C)Cc2ccc(Cl)cc2Cl)CC1)C(C)C | 0.5

System: not listed separately
Assay: Volume of distribution in mouse at 5 mg/kg, iv and 10 mg/kg, po
Assay type: ADME, organism-based
Details: in vivo

SMILES | Vd [L/kg]
CNCC(=O)N[C@H](c1cccc(F)c1N1CCN(C(=O)[C@H](C)Cc2ccc(Cl)cc2Cl)CC1)C(C)C | 13

System: not listed separately
Assay: Oral bioavailability in mouse at 10 mg/kg
Assay type: ADME, organism-based
Details: in vivo

SMILES | bioavailability [%]
CNCC(=O)N[C@H](c1cccc(F)c1N1CCN(C(=O)[C@H](C)Cc2ccc(Cl)cc2Cl)CC1)C(C)C | 23

System: not listed separately
Assay: Ratio of drug level in brain to plasma in mouse at 5 mg/kg, iv after 1 hr
Assay type: ADME, organism-based
Design: dose 5 mg/kg, route intravenous
Details: not given

SMILES | Kp at 1 h
CNCC(=O)N[C@H](c1cccc(F)c1N1CCN(C(=O)[C@H](C)Cc2ccc(Cl)cc2Cl)CC1)C(C)C | 0.3

System: not listed separately
Assay: Cmax in mouse at 5 mg/kg, iv and 10 mg/kg, po
Assay type: ADME, organism-based
Details: in vivo

SMILES | Cmax [ng/mL]
CNCC(=O)N[C@H](c1cccc(F)c1N1CCN(C(=O)[C@H](C)Cc2ccc(Cl)cc2Cl)CC1)C(C)C | 172

System: not listed separately
Assay: Drug level in mouse brain at 5 mg/kg, iv after 1 hr
Assay type: ADME, organism-based
Design: dose 5 mg/kg, route intravenous
Details: read-out: Drug uptake

SMILES | concentration at 1 h [ng/g]
CNCC(=O)N[C@H](c1cccc(F)c1N1CCN(C(=O)[C@H](C)Cc2ccc(Cl)cc2Cl)CC1)C(C)C | 85
